# Measurements from the OPERA property sets (Mansouri et al. 2018).
# Peptide text beside a SMILES is read from it. * marks the point of attachment. Cbz = O=C(OCc1ccccc1)*
row,SMILES,logP
1,N#CCC(=O)Nc1ccc(Cl)c(Cl)c1,2.72
2,CC(=O)Nc1cccc(I)c1,2.64
3,O=C(OCCNC(=O)C(F)(F)F)c1ccccc1,2.25
4,CCNCC(F)(F)F,0.74
5,CCCOCCC(=O)N(C)c1ccc(S(=O)(=O)N(C)C)cc1,1.26
6,CCOC(=O)CON=Cc1ccc(OCCOC(=O)c2ccccc2OC)c(OC)c1,3.27
7,CCCc1ccc(NC(C)=O)cc1,2.75
8,CCCCC1OC(=O)c2cc(N(CCO)CCO)ccc21 (stereo not drawn),1.34
9,CC=CC(=O)Nc1ccc(Cl)c(Cl)c1,3.63
10,COC(=O)c1cccc(NC(C)=O)c1,1.46
11,S=c1cc[nH]cc1,0.2
12,CC(=O)Nc1ccc2c(=O)c(C)c(C)oc2c1[N+](=O)[O-],1.61
13,COc1cc(C=O)ccc1OCCOC(=O)c1ccc(Cl)cc1,3.71
14,CC(=O)Nc1ccccc1C(C)C,1.71
15,Cc1nnc(SCc2ccccc2)o1,1.74
16,CCOC(=O)CON=Cc1ccc(OCCOC(=O)c2cc(OC)c(OC)c(OC)c2)c(OC)c1,3.26
17,CC(=O)Nc1ccc(C#N)cc1,1.37
18,Cc1[nH]c(=O)[nH]c(=O)c1N(CCF)CCCl,0.85
19,OCCOCCN1CCN(CCCN2c3ccccc3Sc3ccc(C(F)(F)F)cc32)CC1,4.49
20,O=[N+]([O-])c1ccc(/C=C/c2cccc(CO)n2)o1,1.37
21,COCCN(N=Nc1[nH]cnc1C(N)=O)C(C)(C)C,1.14
22,Cc1cccc(C)c1NC(=O)c1cccc(CN2CCOCC2)c1,2.14

row,SMILES,logP
1,CC(C)C(NC(=O)OCc1ccccc1)C(=O)NC(Cc1ccc(O)cc1)C(=O)O (stereo not drawn) (Cbz-Val-Tyr-OH; configuration not given here),2.43
2,NC(=O)c1cccnc1N,0.88
3,COC(=O)c1ccccc1NC(C)=O,1.65
4,CCCCCCC1OC(=O)c2cc(N)ccc21 (stereo not drawn),3.65
5,NC(=O)c1nc[nH]c1N=NN(CCO)Cc1ccccc1,0.99
6,CSc1nccc(=O)[nH]1,0.22
7,CC1(C)N=C(N)N=C(N)N1c1ccc(OCC(=O)N2CCOCC2)cc1,-1.18
8,OC(c1ccccc1)(c1ccccc1)c1ccccc1,3.68
9,CC(=O)Nc1ccc(S(C)(=O)=O)cc1,0.58
10,CN(C)C(=S)Nc1ccccc1,1.04
11,CSc1ncnc2c1ccn2C1OC(CO)C(O)C1O (stereo not drawn),0.09
12,NC(=O)c1ncccc1O,0.65
13,C#CCCC(=O)N(C)c1ccc(S(=O)(=O)N(C)C)cc1,0.88
14,O=C(O)c1cc(=O)c2c(OCC(O)COc3cccc4oc(C(=O)O)cc(=O)c34)cccc2o1,1.92
15,O=NN(CCCl)C(=O)Nc1ccc(Cl)cc1,3.16
16,CCOC(=O)c1ccc(NC(=O)C(F)(F)F)cc1,2.25
17,NCC(=O)NCC(=O)NCC(=O)O,-2.68
18,CC(=O)NC1CCSC1=O (stereo not drawn),-0.35
19,CCCCCC(=O)N(C)c1ccc(S(=O)(=O)N(C)C)cc1,2.16
20,O=C1CC(C(=O)O)Oc2ccccc21 (stereo not drawn),1.26
21,CCOCCOC(=O)C(C#N)=C(CC)NCc1ccc([N+](=O)[O-])cc1,2.64
